The supplement of paper PMC8372320

Assay: photocatalytic hydrogen evolution rate (per 5 mg catalyst); higher = more photocatalytic H2 evolution; extreme values may be limits of the assay
Conditions: catalyst mass (mg): 5; Pt cocatalyst (wt%): 3; sacrificial medium: triethylamine/methanol/water 1:1:1
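Also: aromatic molecules in triethylamine/methanol/water with Pt photoreduced in situ, irradiated 3 h under a 1 sun AM 1.5G solar simulator (350–1000 nm), H2 quantified by headspace gas chromatography; listed molecule itself used as the photocatalyst at 5 mg per vial.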

| Compound | photocatalytic hydrogen evolution rate [µmol/h] |
| --- | --- |
| Fc1c(I)ccc(I)c1F | 0 |
| c1ccc(-c2cc(-c3ccccc3)cc(-c3ccccc3)c2)cc1 | 0.0457 |
| Nc1nc(Br)cnc1Br | 0.0666 |
| Brc1ccc(-c2ccc(-c3ccc(Br)s3)c3nsnc23)s1 | 0.174 |
| CNc1ccc(C#N)cc1 | 0 |
| N#Cc1nccnc1C#N | 0 |
| N#Cc1ccc(-c2ccc(N)cc2)cc1 | 0 |
| N#Cc1cccc(C#N)c1 | 0 |
| CCN1C(=O)C(=O)c2cc(Br)cc(Br)c21 | 0.105 |
| O=Cc1ccc2nsnc2c1 | 0 |
| N#Cc1c(-n2c3ccccc3c3ccccc32)c(-n2c3ccccc3c3ccccc32)c(C#N)c(-n2c3ccccc3c3ccccc32)c1-n1c2ccccc2c2ccccc21 | 1.6 |
| Oc1cc(Br)c(O)cc1Br | 0 |
| O=Cc1cc(Br)cc(C=O)c1 | 0.831 |
| O=C1C(Br)=C(Br)C(=O)C(Br)=C1Br | 0 |
| Nc1cc(C(=O)O)ccc1C(=O)O | 0.109 |
| Cn1c2ccc(Br)cc2c(=O)c2cc(Br)ccc21 | 9.21 |
| Fc1c(Br)cccc1Br | 0 |
| O=c1c2ccccc2n(-c2ccccc2)c2ccccc12 | 3.33 |
| O=Cc1ccc(Br)cc1 | 0.624 |
| CC1(C)OB(c2ccc(B3OC(C)(C)C(C)(C)O3)c3nsnc23)OC1(C)C | 0 |
| N#Cc1cccnc1C#N | 0 |
| N#Cc1c(F)c(F)c(Br)c(F)c1F | 0 |
| c1csc(-c2ccc(N(c3ccc(-c4cccs4)cc3)c3ccc(-c4cccs4)cc3)cc2)c1 | 0 |
| CCOC(=O)c1nc(C(=O)OCC)nc(C(=O)OCC)n1 | 0.00108 |
| C=Cc1ccc2c(=C(C#N)C#N)c3ccccc3c(=C(C#N)C#N)c2c1 | 0 |

| Compound | photocatalytic hydrogen evolution rate [µmol/h] |
| --- | --- |
| N#Cc1cccnc1Br | 0 |
| OCc1cccc2cc3cccc(CO)c3cc12 | 0.00242 |
| N#Cc1ccc(-c2ccc(C#N)c(O)c2)cc1 | 8.34 |
| O=C(O)c1ccc(-c2ccccc2)cc1 | 0 |
| Nc1ccc(Br)cc1 | 0 |
| Brc1ccc(C(c2ccc(Br)cc2)(c2ccc(Br)cc2)c2ccc(Br)cc2)cc1 | 0.0679 |
| Nc1c(Br)ccc(Br)c1N | 0 |
| CC1(C)OB(c2ccc(B3OC(C)(C)C(C)(C)O3)cc2)OC1(C)C | 0 |
| CCOC(=O)c1ccc(C(=O)OCC)nc1 | 0.0237 |
| Nc1ccc(Br)cc1Br | 0 |
| O=C(O)c1ccc(-c2nc(-c3ccc(C(=O)O)cc3)nc(-c3ccc(C(=O)O)cc3)n2)cc1 | 0.201 |
| O=[N+]([O-])c1cc(Br)ccc1Br | 0 |
| O=C1c2ccc(Br)cc2C(=O)c2ccc(Br)cc21 | 0 |
| c1cnc2c(c1)ccc1cccnc12 | 0.478 |
| O=Cc1cccc(-c2ccccc2)c1 | 3.14 |
| Brc1c2ccccc2c(Br)c2ccccc12 | 0.0125 |
| CC1(C)OB(c2cn[nH]c2)OC1(C)C | 0 |
| O=C(O)c1ccc(-c2cc(-c3ccc(C(=O)O)cc3)c(-c3ccc(C(=O)O)cc3)cc2-c2ccc(C(=O)O)cc2)cc1 | 0.052 |
| CCCCCCC1(CCCCCC)c2cc(Br)ccc2-c2ccc(Br)cc21 | 0 |
| C#Cc1ccc(C#C)cc1 | 0 |
| O=Cc1c(O)cc(O)cc1O | 0 |
| CC(C)c1cc(C(C)C)c(-c2ccccc2P(C(C)(C)C)C(C)(C)C)c(C(C)C)c1 | 0 |
| CCc1cc(C)cc(CC)c1Nc1ccc(Nc2c(CC)cc(C)cc2CC)c2c1C(=O)c1ccccc1C2=O | 0 |
| Nc1cc(Br)c(F)cc1Br | 0 |
| O=Cc1ccc(-c2ccc(C=O)cc2)cc1 | 8.89 |

| Compound | photocatalytic hydrogen evolution rate [µmol/h] |
| --- | --- |
| O=Cc1cccc(-c2c(O)ccc3ccccc23)c1 | 0.0122 |
| N#Cc1cc(N)ccn1 | 0 |
| O=C(O)c1cc(Br)ccc1Br | 0 |
| c1ccc2sccc2c1 | 0 |
| c1ccc(N=Nc2ccccc2)cc1 | 0 |
| Fc1cc(Br)c2nsnc2c1Br | 0.241 |
| Cc1cccc(N(c2ccc(C=O)cc2)c2cccc(C)c2)c1 | 0.245 |
| O=Cc1cccc(-c2ccccn2)c1 | 2.43 |
| c1ccc(-c2ccc(-c3ccc(-c4ccc(-c5ccc(-c6ccccc6)cc5)cc4)cc3)cc2)cc1 | 0 |
| O=Cc1ccnc(-c2cc(C=O)ccn2)c1 | 0 |
| O=C1C=CC(=O)N1c1ccccc1 | 0 |
| O=Cc1ccc2ccc3cccc4ccc1c2c34 | 10.3 |
| O=Cc1ccc(-n2ccnc2)cc1 | 1.5 |
| Oc1c(Br)c(O)c(Br)c(O)c1Br | 0 |
| O=C(O)c1ccc(C#Cc2cc(C#Cc3ccc(C(=O)O)cc3)cc(C#Cc3ccc(C(=O)O)cc3)c2)cc1 | 0 |
| O=C1NC(=O)c2cccc3cccc1c23 | 24.5 |
| O=Cc1cc(O)ccc1O | 0 |
| Brc1cnc(Br)c2nsnc12 | 0 |
| O=Cc1ccc(N(c2ccccc2)c2ccc(C=O)cc2)cc1 | 1.17 |
| Brc1ccc(C#CC#Cc2ccc(Br)cc2)cc1 | 0 |
| c1ccc2c(c1)-c1ccccc1C21c2ccccc2-c2ccccc21 | 0 |
| CCn1c2ccccc2c2cc(C=O)ccc21 | 2.45 |
| Nc1ccc2c(c1)C(=O)c1ccc(N)cc1C2=O | 0.006 |
| O=Cc1ccc(N(c2ccc(C=O)cc2)c2ccc(C=O)cc2)cc1 | 1.46 |
